Measurements from patent publication US20240034743A9, “TRICYCLIC COMPOUNDS AS EGFR INHIBITORS” (QILU PHARMACEUTICAL CO., LTD., priority 2020, published 2024).
Like-named read-outs stand apart in the source and are kept apart here.

Key:
[1] = system: Ba/F3_Del19/T790M/C797S cells; test: Ba/F3_Del19/T790M/C797S cell proliferation inhibition assay (CellTiter-Glo); type: cell-based; settings: Mus musculus
Method: Ba/F3_Del19/T790M/C797S Cell Proliferation Inhibition Assay
In the assay, the inhibition effect of the compounds on the proliferation of Ba/F3_Del19/T790M/C797S cells was tested by adopting a CellTiter-Glo method, and the concentration IC50 of the compound for inhibiting half maximal growth of cells was obtained.
Ba/F3_Del19/T790M/C797S, purchased from Kyinno Biotechnology Co., Ltd. 1640 medium, fetal bovine serum (FBS), Penicillin-Streptomyces, and GlutaMAX-I Supplement, purchased from GIBCO.
(§1) Brigatinib, purchased from Selleck.
(§2) CellTiter-Glo reagent, purchased from Promega.
1) Ba/F3_Del19/T790M/C797S cells were seeded in a 384-well plate at a density of 700 cells/well with 30 μL/well.
(§3) 2) Day 0: […] of gradiently-diluted compounds to be tested with a final concentration of DMSO of 0.1% was added to plate using Echo, and the plate was incubated in a cell incubator for 72 h (37° C., 5% CO2). […] of DMSO was added into each well in blank control group.
(§4) 3) Day 3: 30 μL Cell Titer-Glo reagent was added to each well, and the plate was in the dark under room temperature for 30 min.
(§5) 4) The chemiluminescent signal was detected by an Envision plate reader (PerkinElmer).
Data analysis was performed using GraphPad Prism 6 software to give the IC50 for compounds.

[2] = system: Ba/F3_L858R/T790M/C797S cells; test: Ba/F3_L858R/T790M/C797S cell proliferation inhibition assay (CellTiter-Glo); type: cell-based; settings: Mus musculus
Method: Ba/F3_L858R/T790M/C797S Cell Proliferation Inhibition Assay
In the assay, the inhibition effect of the compounds on the proliferation of Ba/F3_L858R/T790M/C797S cells was tested by adopting a CellTiter-Glo method, and the concentration IC50 of the compound for inhibiting half maximal growth of cells was obtained.
Ba/F3_L858R/T790M/C797S cells were constructed by Pharmaron Beijing Co., Ltd.
1640 medium, fetal bovine serum (FBS), Penicillin-Streptomyces, and GlutaMAX-I Supplement, purchased from GIBCO.
as §1, §2
1) Ba/F3_L858R/T790M/C797S cells were seeded in a 384-well plate at a density of 700 cells/well with 30 μL/well.
as §3, §4, §5
(§6) 5) Data analysis was performed using GraphPad Prism software to give the IC50 for compounds.

A431 cells (EGFR WT) = test: A431 cell proliferation inhibition assay (CellTiter-Glo); type: cell-based; settings: Homo sapiens
Method: A431 Cell Proliferation Inhibition Assay
In the assay, the inhibition effect of the compounds on the proliferation of A431 cells was tested by adopting a CellTiter-Glo method, and the concentration IC50 of the compound for inhibiting half maximal growth of cells was obtained.
A431 cells, purchased from ATCC.
DMEM medium, fetal bovine serum (FBS), and Penicillin-Streptomycin, purchased from GIBCO.
as §1, §2
1) A431 cells were seeded in a 384-well plate at a density of 800 cells/well with 30 μL/well, and the plate was cultured in a cell incubator for 24 h (37° C., 5% CO2).
as §3, §4, §5, §6

EGFR WT (wild type EGFR) = EGFR WT (wild type EGFR) (Homo sapiens (Human), UniProt P00533); test: In vitro enzymatic TR-FRET (HTRF KinEASE-TK) kinase assay, EGFR WT; type: biochemical; settings: kinase activity, TR-FRET; read-out: EGFR (WT) IC50
Method: (I) In Vitro Enzymatic Experiment for EGFR WT and EGFR L858R/T790M/C797S
In the assay, the inhibition effect of the compound on the kinase activity of EGFR WT (wild type EGFR) and EGFR L858R/T790M/C797S was tested by adopting a time-resolved fluorescence resonance energy transfer (TR-FRET) method, and half maximal inhibitory concentration IC50 of the compound on the kinase activity of EGFR was obtained.
EGFR recombinase and EGFR L858R/T790M/C797S recombinase, purchased from Signalchem.
HTRF KinEASE-TK kit, purchased from Cisbio.
DTT, MnCl2, and MgCl2, purchased from Sigma.
ATP, purchased from Promega.
as §1
1) 1× working solution was prepared: 5 mM MgCl2; 1 mM DTT; 1 mM MnCl2 and 1× kinase buffer (in kit).
2) […] of gradiently-diluted compound was transferred to a 384-well plate using Echo 550 (Labcyte).
3) 5 μL of 2× EGFR WT or EGFR L858R/T790M/C797S recombinase solution was added to the 384-well plate, and the plate was incubated at room temperature for 10 min.
4) 5 μL of 2× TK-substrate-biotin substrate solution (containing ATP) was added to the 384-well plate, and the plate was incubated at room temperature for 40 min.
5) 5 μL of assay solution containing Sa-XL 665 HTRF and 5 μL of TK-antibody-Cryptatewas were added to the plate, and the plate was incubated at room temperature for 1 h.
6) The fluorescence signal values at 615 nm and 665 nm were measured for each well using an Envision microplate reader (PerkinElmer).
7) The ratio of fluorescence signal values at 665 nm and 615 nm was calculated for each well.
8) Data analysis was performed using GraphPad Prism software to give the IC50 for compounds.

[3] = BaF3, cell proliferation, 72 h, CellTiter-Glo, read-out: Ba/F3 (Del19/T790M/C797S) IC50
[4] = BaF3, cell proliferation, 72 h, CellTiter-Glo, read-out: Ba/F3 (L858R/T790M/C797S) IC50
[5] = A-431, cell proliferation, 72 h, CellTiter-Glo, read-out: A431 EGFR WT IC50
[6] = BaF3, 72 h, read-out: Ba/F3 (Del19/T790M/C797S) IC50(nM)
[7] = BaF3, 72 h, read-out: Ba/F3 (L858R/T790M/C797S) IC50(nM)
[8] = A-431, 72 h, read-out: A431 EGFR WT IC50(nM)

Chain of EGFR WT (wild type EGFR) (P00533 25-1210): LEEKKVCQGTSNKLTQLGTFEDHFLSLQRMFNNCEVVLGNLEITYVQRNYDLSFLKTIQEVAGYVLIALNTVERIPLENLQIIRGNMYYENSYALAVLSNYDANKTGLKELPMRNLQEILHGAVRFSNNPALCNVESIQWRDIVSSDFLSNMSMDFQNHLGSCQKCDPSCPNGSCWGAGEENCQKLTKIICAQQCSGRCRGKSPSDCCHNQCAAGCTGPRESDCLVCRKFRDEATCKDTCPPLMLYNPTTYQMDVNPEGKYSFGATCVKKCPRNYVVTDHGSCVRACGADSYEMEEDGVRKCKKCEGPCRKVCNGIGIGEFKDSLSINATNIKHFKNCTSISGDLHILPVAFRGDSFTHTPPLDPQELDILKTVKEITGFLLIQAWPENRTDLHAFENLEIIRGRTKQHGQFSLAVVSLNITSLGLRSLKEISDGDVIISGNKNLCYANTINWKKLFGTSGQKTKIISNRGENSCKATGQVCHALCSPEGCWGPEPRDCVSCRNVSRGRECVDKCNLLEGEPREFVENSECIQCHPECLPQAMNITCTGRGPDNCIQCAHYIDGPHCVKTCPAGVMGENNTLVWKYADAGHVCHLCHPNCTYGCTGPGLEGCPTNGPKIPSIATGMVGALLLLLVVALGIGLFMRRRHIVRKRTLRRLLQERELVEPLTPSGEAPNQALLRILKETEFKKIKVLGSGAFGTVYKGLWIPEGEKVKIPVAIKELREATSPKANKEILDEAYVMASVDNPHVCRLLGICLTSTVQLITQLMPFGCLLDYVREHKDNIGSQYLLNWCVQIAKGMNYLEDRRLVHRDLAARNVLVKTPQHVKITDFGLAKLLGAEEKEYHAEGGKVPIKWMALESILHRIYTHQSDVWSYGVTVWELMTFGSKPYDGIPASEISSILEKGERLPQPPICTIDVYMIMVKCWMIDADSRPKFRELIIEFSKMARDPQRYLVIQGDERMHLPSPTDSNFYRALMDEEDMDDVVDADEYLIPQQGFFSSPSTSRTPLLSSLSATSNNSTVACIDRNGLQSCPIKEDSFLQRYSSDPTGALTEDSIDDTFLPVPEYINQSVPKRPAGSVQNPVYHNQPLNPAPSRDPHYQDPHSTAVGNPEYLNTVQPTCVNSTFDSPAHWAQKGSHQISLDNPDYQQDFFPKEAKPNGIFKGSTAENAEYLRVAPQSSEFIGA

| SMILES | IC50 [1, 3] [nM] | IC50 [2, 4] [nM] | IC50 (A431 cells (EGFR WT); [5]) [nM] | IC50 (EGFR WT (wild type EGFR)) [nM] | IC50 [1, 6] [nM] | IC50 [2, 7] [nM] | IC50 (A431 cells (EGFR WT); [8]) [nM] |
| --- | --- | --- | --- | --- | --- | --- | --- |
| COc1cc2c(cc1Nc1nc(Nc3ccc4nccnc4c3P(C)(C)=O)c3sccc3n1)-c1cnn(C)c1CCN2C [Compound 61] | < 10 | < 10 | 10 to 50 | 1 to 10 |  |  |  |
| COc1cc2c(cc1Nc1ncc(Cl)c(Nc3ccc4nccnc4c3NS(C)(=O)=O)n1)-c1cnn(C)c1CCN2C(C)C [Compound 103] | < 10 | < 10 | 100 to 1000 | 1 to 10 |  |  |  |
| COc1cc2c(cc1Nc1ncc(Br)c(Nc3ccc4nccnc4c3P(C)(C)=O)n1)-c1cnn(C)c1CCN2C(C)=O [Compound 15] | < 10 | 10 to 50 | 100 to 1000 | 10 to 50 |  |  |  |
| COc1cc2c(cc1Nc1ncc(Cl)c(Nc3cccnc3P(C)(C)=O)n1)-c1cnn(C)c1CCN2C(C)C [Compound 100] | 10 to 50 | 10 to 50 | 100 to 1000 | 1 to 10 |  |  |  |
| COc1cc2c(cc1Nc1ncc(Br)c(Nc3ccccc3P(C)(C)=O)n1)-c1cnn(C)c1CCN2 [Compound 28] |  |  |  | 1 to 10 | < 10 | < 10 | 100 to 1000 |
| COc1cc2c(cc1Nc1ncc(Br)c(Nc3ccccc3P(C)(C)=O)n1)-c1cnn(C)c1COC2 [Compound 46] | 10 to 50 | 10 to 50 | 100 to 1000 | 10 to 50 |  |  |  |
| COc1cc2c(cc1Nc1ncc(Br)c(Nc3ccn4ccnc4c3NS(C)(=O)=O)n1)-c1cnn(C)c1CCN2C(C)C [Compound 110] | 10 to 50 | 50 to 100 | 100 to 1000 | 1 to 10 |  |  |  |
| CCN1CCc2c(cnn2C)-c2cc(Nc3ncc(Br)c(Nc4ccccc4P(C)(C)=O)n3)c(OC)cc21 [Compound 20] | < 10 | < 10 | 100 to 1000 | 1 to 10 |  |  |  |
| COc1cc2c(cc1Nc1ncc(Br)c(Nc3ccccc3P(C)(C)=O)n1)-c1cnn(C)c1CNC2 [Compound 49] | 10 to 50 | 10 to 50 | 100 to 1000 | 10 to 50 |  |  |  |
| COc1cc2c(cc1Nc1ncc(Br)c(Nc3ccccc3S(=O)(=O)N(C)C)n1)-c1cnn(C)c1CCN2C(C)C [Compound 126] | 100 to 1000 | 100 to 1000 | > 1000 | 1 to 10 |  |  |  |
| COc1cc2c(cc1Nc1ncc(Br)c(Nc3ccc4nccnc4c3P(C)(C)=O)n1)-c1cnn(C)c1CCN2CC1CC1 [Compound 12] | < 10 | < 10 | 100 to 1000 | 1 to 10 |  |  |  |
| COc1cc2c(cc1Nc1ncc(Br)c(Nc3ccc4nccnc4c3C(=O)N(C)C)n1)-c1cnn(C)c1CCN2C(C)C [Compound 109] |  |  |  | 1 to 10 | 10 to 50 | 10 to 50 | 100 to 1000 |
| CCN1CCc2c(cnn2C)-c2cc(Nc3ncc(C)c(Nc4ccccc4P(C)(C)=O)n3)c(OC)cc21 [Compound 19] | < 10 | 10 to 50 | 100 to 1000 | 1 to 10 |  |  |  |
| COc1cc2c(cc1Nc1ncc(Br)c(Nc3ccccc3P(C)(C)=O)n1)-c1cnn(C3CCN(C)CC3)c1CCN2C(C)C [Compound 75] | 10 to 50 | 50 to 100 | 100 to 1000 | 1 to 10 |  |  |  |
| COc1nc2c(cc1Nc1ncc(Br)c(Nc3ccc4nccnc4c3P(C)(C)=O)n1)-c1cnn(C)c1CCN2 [Compound 52] | < 10 | < 10 | 100 to 1000 | 1 to 10 |  |  |  |
| COc1cc2c(cc1Nc1ncc(Br)c(Nc3ccc4nccnc4c3NC(C)=O)n1)-c1cnn(C)c1CCN2C(C)C [Compound 106] | < 10 | 10 to 50 | 100 to 1000 | 1 to 10 |  |  |  |
| COc1cc2c(cc1Nc1ncc(Br)c(Nc3ccc(F)cc3NS(C)(=O)=O)n1)-c1cnn(C)c1CCN2C(C)C [Compound 128] | < 10 | < 10 | > 1000 | 1 to 10 |  |  |  |
| COc1cc2c(cc1Nc1ncc(Br)c(Nc3ccccc3NS(C)(=O)=O)n1)-c1cnn(C)c1CCN2C(C)C [Compound 54] | < 10 | 10 to 50 | 100 to 1000 | 1 to 10 |  |  |  |
| COc1cc2c(cc1Nc1ncc(C(F)(F)F)c(Nc3ccccc3P(C)(C)=O)n1)-c1cnn(C)c1CCN2C [Compound 26] | < 10 | < 10 | 100 to 1000 | 10 to 50 |  |  |  |
| COc1cc2c(cc1Nc1ncc(Br)c(Nc3ccc4nccnc4c3N(C)S(C)(=O)=O)n1)-c1cnn(C)c1CCN2C(C)C [Compound 131] | 10 to 50 | 10 to 50 | > 1000 | 1 to 10 |  |  |  |
| COc1cc2c(cc1Nc1ncc(Br)c(Nc3ccc4nccnc4c3NS(C)(=O)=O)n1)-c1cnn(C)c1CCN2C#N [Compound 113] | < 10 | 10 to 50 | 100 to 1000 | 1 to 10 |  |  |  |
| COc1cc2c(cc1Nc1ncc(Br)c(Nc3ccc4nccnc4c3P(C)(C)=O)n1)-c1cnn(C)c1CCC2O (stereo not shown) [Compound 24] | < 10 | < 10 | 100 to 1000 | 1 to 10 |  |  |  |
| COc1cc2c(cc1Nc1ncc(Br)c(Nc3ccccc3P(C)(C)=O)n1)-c1cnn(C)c1CCN2C1CCN(C)CC1F (stereo not shown) [Compound 65] | < 10 | 10 to 50 | 100 to 1000 | 1 to 10 |  |  |  |
| COc1cc2c(cc1Nc1ncc(Br)c(Nc3ccccc3P(C)(C)=O)n1)-c1cnn(C)c1CCN2C [Compound 2] | < 10 | < 10 | 50 to 100 | 1 to 10 |  |  |  |
| COc1cc2c(cc1Nc1ncc(C)c(Nc3ccccc3P(C)(C)=O)n1)-c1cnn(C)c1CCN2C(C)C [Compound 94] | 10 to 50 | 10 to 50 | 100 to 1000 | 1 to 10 |  |  |  |
| COc1cc2c(cc1Nc1ncc(Cl)c(Nc3ccccc3P(C)(C)=O)n1)-c1cnn(C)c1CCN2C [Compound 14] | < 10 | < 10 | 100 to 1000 | 1 to 10 |  |  |  |
| COc1nc2c(cc1Nc1ncc(Br)c(Nc3ccccc3P(C)(C)=O)n1)-c1cnn(C)c1CCN2C [Compound 79] | 10 to 50 | 10 to 50 | 100 to 1000 | 10 to 50 |  |  |  |
| COc1cc2c(cc1Nc1ncc(Br)c(Nc3ccccc3P(C)(C)=O)n1)-c1cnn(C)c1C(F)(F)CN2 [Compound 92] | < 10 | 10 to 50 | 100 to 1000 | 1 to 10 |  |  |  |
